US5096922A, “Macrocyclic antibodies” (Gesellschaft fur Biotechnologische Forschung mbH, priority 1985, dated 1992)

How the values were obtained:
[1] = system: Staphylococcus aureus Strain Wood 46 in human polymorphonuclear leucocytes; test: in vitro test on human polymorphonuclear leucocytes and Staphylococcus aureus Strain Wood 46; format: cell-based; conditions: S. aureus Strain Wood 46
Description: In the in vitro test on human polymorphonuclear leucocytes and Staphylococcus aureus Strain Wood 46, sorangicin A is effective against bacteria that occur intracellularly, e.g. staphylococcae.

[2] = molecular target: T1, reverse transcriptase of Moloney Murine leucaemia virus (Moloney murine leukemia virus, UniProt P03355); test: inhibition of reverse transcriptase enzyme; format: biochemical; conditions: reverse transcriptase of MLV; method of Wu et al.; read-out: ID50 (dose that inhibits the RT activity by 50%) (converted)
T1 construct: reverse transcriptase of Moloney Murine leucaemia virus
Description: Proof of the antiviral activity of the compounds of formula I against retroviruses is shown by in vitro and in vivo tests, but especially by an in vitro test system in which the inhibition of the reverse transcriptase enzyme is determined quantitatively by said compounds.
On poly A-oligo (dT), radioactively labelled TPP is hybridised with reverse transcriptase. The […] radioactivity is measured and serves as reference for the activity of the reverse transcriptase.
The ID50 of the compounds of formula I is determined by using them in the test system in different concentrations.
Sorangicin A is active against reverse transcriptase of Moloney Murine leucaemia virus; the ID50 [dose that inhibits the RT activity by 50%; method of Wu et al., Proc. Natl. Acad. Sci., 69, 3820 (1972)] for the reverse transcriptase of MLV is c. 7 μg/ml.

CC(=CC(C)CCCCC(=O)O)C1OC2C=CC1OC(=O)C=CC=CC=CC1OC3CC1OC(C=CCC1OC(CC(O)C1C)C(O)C(O)C=CCCC=CC2)C3C (stereo not drawn) [sorangicin A]
activity against bacteria that occur intracellularly [1]: effective
activity within leucocytes [1]: bactericidal activity
IC50 [2]: ~8.67 µM
